# Earlier results as cited in patent US20130085131A1, “HETEROCYCLIC COMPOUNDS AND THEIR USES” (Amgen Inc., priority 2010, published 2013).
# Key:
# [1] = tested on: mouse model of rheumatoid arthritis
# [2] = tested on: model of systemic lupus erythematosis; conditions: in vivo
# p110δ = target: T1, p110δ (Homo sapiens, UniProt O00329)
# T1 sequence (O00329 1-1044): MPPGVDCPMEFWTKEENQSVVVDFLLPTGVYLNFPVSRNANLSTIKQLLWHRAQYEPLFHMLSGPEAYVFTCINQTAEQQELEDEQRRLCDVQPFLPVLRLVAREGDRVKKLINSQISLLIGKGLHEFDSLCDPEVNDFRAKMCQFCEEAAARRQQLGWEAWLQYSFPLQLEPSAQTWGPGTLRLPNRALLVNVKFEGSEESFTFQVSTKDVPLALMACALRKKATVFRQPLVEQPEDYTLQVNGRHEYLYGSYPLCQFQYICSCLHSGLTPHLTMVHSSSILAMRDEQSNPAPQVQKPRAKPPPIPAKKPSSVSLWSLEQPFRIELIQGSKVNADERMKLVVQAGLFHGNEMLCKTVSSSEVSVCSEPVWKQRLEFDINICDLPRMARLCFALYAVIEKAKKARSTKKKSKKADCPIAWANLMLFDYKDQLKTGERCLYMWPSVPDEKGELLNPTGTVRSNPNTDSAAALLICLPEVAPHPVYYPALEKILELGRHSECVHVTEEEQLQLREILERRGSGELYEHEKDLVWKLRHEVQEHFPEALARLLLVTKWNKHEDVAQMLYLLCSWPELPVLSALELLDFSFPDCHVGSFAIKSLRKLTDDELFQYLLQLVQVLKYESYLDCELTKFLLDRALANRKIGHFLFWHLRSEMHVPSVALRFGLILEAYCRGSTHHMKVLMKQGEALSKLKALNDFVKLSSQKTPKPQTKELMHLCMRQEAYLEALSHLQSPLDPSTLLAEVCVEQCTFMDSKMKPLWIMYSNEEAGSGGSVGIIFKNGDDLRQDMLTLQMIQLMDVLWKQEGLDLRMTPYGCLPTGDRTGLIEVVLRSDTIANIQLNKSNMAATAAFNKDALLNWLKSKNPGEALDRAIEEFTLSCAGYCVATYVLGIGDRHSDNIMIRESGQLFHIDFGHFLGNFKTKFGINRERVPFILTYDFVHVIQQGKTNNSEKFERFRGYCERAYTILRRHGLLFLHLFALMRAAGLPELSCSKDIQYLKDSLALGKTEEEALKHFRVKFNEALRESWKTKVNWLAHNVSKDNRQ
# [3] = tested on: murine model of allergic disease; conditions: absence of functional delta (IC 87114 and p110δ D910A mice)
# murine model of asthma = conditions: ovalbumin-induced airway inflammation
Structure (SMILES),efficacy in a mouse model of rheumatoid arthritis [1],onset of disease in a model of systemic lupus erythematosis [2],inhibition of p110δ (p110δ),activity against any protein kinases tested (protein kinases),passive cutaneous anaphylaxis (PCA) [3],inflammation and disease in a murine model of asthma (murine model of asthma)
O=C1NC(=O)/C(=C\c2ccc3nccnc3c2)S1 [AS 605240],efficacious,delay onset of disease,–,–,–,–
Cc1ccccc1-n1c(Cn2cnc3c(N)ncnc32)nc2cccc(C)c2c1=O [IC87114],–,–,high nanomolar range (triple digit),no activity,significantly reduced,significantly ameliorate
